Assay: logP by HPLC on reversed-phase column (EEC Directive 79/831 Annex V.A8)
Conditions: HPLC on a reversed-phase column (C 18), EEC Directive 79/831 Annex V.A8

Row | logP | SMILES
1 | 4.34 | Cn1nc(C(F)F)c(C(=O)Nc2cccc(-c3ccc(OC(F)(F)F)cc3)c2)c1Cl [compound 244]
2 | 4.46 | CC(C)O/N=C/c1ccc(-c2cccc(NC(=O)c3c(C(F)F)nn(C)c3F)c2)cc1 [compound 245]
3 | 4.66 | CC(C)O/N=C/c1ccc(-c2cccc(NC(=O)c3c(C(F)F)nn(C)c3Cl)c2)cc1 [compound 246]
4 | 5.28 | C/C(=N\OC(C)(C)C)c1ccc(-c2cccc(NC(=O)c3c(C(F)F)nn(C)c3F)c2)cc1 [compound 247]
5 | 5.51 | C/C(=N\OC(C)(C)C)c1ccc(-c2cccc(NC(=O)c3c(C(F)F)nn(C)c3Cl)c2)cc1 [compound 248]
6 | 3.83 | Cn1nc(C(F)F)c(C(=O)Nc2cccc(C#Cc3ccccc3)c2)c1F [compound 249]
7 | 3.35 | Cn1nc(C(F)F)c(C(=O)Nc2cccc(Oc3ccccc3)c2)c1F [compound 250]
8 | 3.56 | Cn1nc(C(F)F)c(C(=O)Nc2cccc(Oc3ccccc3)c2)c1Cl [compound 251]
9 | 3.35 | Cn1nc(C(F)F)c(C(=O)Nc2cccc(OCc3ccccc3)c2)c1F [compound 252]
10 | 3.55 | Cn1nc(C(F)F)c(C(=O)Nc2cccc(OCc3ccccc3)c2)c1Cl [compound 253]
11 | 3.85 | Cn1nc(C(F)F)c(C(=O)Nc2cccc(Sc3ccccc3)c2)c1Cl [compound 256]
12 | 3.65 | Cn1nc(C(F)F)c(C(=O)Nc2cccc(Sc3ccccc3)c2)c1F [compound 257]
13 | 4.98 | Cn1nc(C(F)F)c(C(=O)Nc2cccc(Sc3ccc(C(C)(C)C)cc3)c2)c1F [compound 258]
14 | 5.17 | Cn1nc(C(F)F)c(C(=O)Nc2cccc(Sc3ccc(C(C)(C)C)cc3)c2)c1Cl [compound 259]
15 | 3.76 | Cn1nc(C(F)F)c(C(=O)Nc2ccc(OC(F)(F)F)cc2Br)c1F [compound 260]
16 | 2.70 | Cn1nc(C(F)F)c(C(=O)Nc2ccc(Cl)cc2)c1F [compound 261]
17 | 4.21 | Cn1nc(C(F)F)c(C(=O)Nc2ccc(C3CCCCC3)cc2)c1F [compound 262]

Same assay, conditions: HPLC on reversed-phase column (C 18), EEC Directive 79/831 Annex V.A8

Row | SMILES | logP
18 | CCOc1ccc(NC(=O)c2c(C(F)F)nn(C)c2Cl)cc1OCC [compound 168] | 2.70
19 | CC(C)Oc1cc(NC(=O)c2c(C(F)F)nn(C)c2F)c(Cl)cc1Cl [compound 172] | 4.41
20 | CC(C)Oc1cc(NC(=O)c2c(C(F)F)nn(C)c2Cl)c(Cl)cc1Cl [compound 173] | 4.68
21 | CCCOc1cccc(NC(=O)c2c(C(F)F)nn(C)c2F)c1 [compound 175] | 3.04
22 | C=C(C)COc1cccc(NC(=O)c2c(C(F)F)nn(C)c2Cl)c1 [compound 177] | 3.33
23 | CCC(C)Oc1cc(NC(=O)c2c(C(F)F)nn(C)c2Cl)ccc1C (stereo not shown) [compound 178] | 4.06
24 | CCC(C)Oc1cc(NC(=O)c2c(C(F)F)nn(C)c2F)ccc1C (stereo not shown) [compound 179] | 3.85
25 | COCCOc1cccc(NC(=O)c2c(C(F)F)nn(C)c2F)c1 [compound 180] | 2.15
26 | Cn1nc(C(F)F)c(C(=O)Nc2cccc(OCC(C)(C)C)c2)c1F [compound 182] | 3.96
27 | Cn1nc(C(F)F)c(C(=O)Nc2cccc(OCC(C)(C)C)c2)c1Cl [compound 183] | 4.19
28 | CCOCCOc1cc(NC(=O)c2c(C(F)F)nn(C)c2Cl)ccc1C [compound 184] | 3.13
29 | CCOCCOc1cc(NC(=O)c2c(C(F)F)nn(C)c2F)ccc1C [compound 185] | 2.96
30 | Cn1nc(C(F)F)c(C(=O)Nc2cccc(OCC(F)(F)F)c2)c1F [compound 186] | 2.88
31 | Cn1nc(C(F)F)c(C(=O)Nc2cccc(OCC(F)(F)F)c2)c1Cl [compound 187] | 3.06
32 | Cn1nc(C(F)F)c(C(=O)Nc2cccc(Br)c2)c1F [compound 189] | 2.82
33 | Cn1nc(C(F)F)c(C(=O)Nc2cccc(Br)c2)c1Cl [compound 190] | 3.04
34 | Cn1nc(C(F)F)c(C(=O)Nc2cccc(C3CC3)c2)c1F [compound 191] | 2.90
35 | Cn1nc(C(F)F)c(C(=O)Nc2ccc3c(c2)OCO3)c1F [compound 194] | 2.05
36 | Cn1nc(C(F)F)c(C(=O)Nc2ccc3c(c2)OCO3)c1Cl [compound 195] | 2.20

Row | SMILES | logP
37 | Cn1nc(C(F)F)c(C(=O)Nc2cc3c(cc2Br)OC(F)(F)O3)c1F [compound 196] | 3.58
38 | Cn1nc(C(F)F)c(C(=O)Nc2ccc3c(c2)OC(F)(F)O3)c1F [compound 197] | 2.94
39 | Cn1nc(C(F)F)c(C(=O)Nc2ccc3c(c2)OC(F)(F)O3)c1Cl [compound 198] | 3.11
40 | Cn1nc(C(F)F)c(C(=O)Nc2ccc3c(c2)OC(F)(F)C(F)(F)O3)c1F [compound 199] | 3.58
41 | Cn1nc(C(F)F)c(C(=O)Nc2ccc3c(c2)OC(F)(F)C(F)(F)O3)c1Cl [compound 200] | 3.76
42 | Cc1ccccc1-c1cccc(NC(=O)c2c(C(F)F)nn(C)c2F)c1 [compound 201] | 3.63
43 | Cc1ccccc1-c1cccc(NC(=O)c2c(C(F)F)nn(C)c2Cl)c1 [compound 202] | 3.83
44 | Cn1nc(C(F)F)c(C(=O)Nc2cccc(-c3ccc(F)cc3)c2)c1F [compound 203] | 3.39
45 | Cn1nc(C(F)F)c(C(=O)Nc2cccc(-c3ccc(F)cc3)c2)c1Cl [compound 204] | 3.59
46 | Cc1cc(C)cc(-c2cccc(NC(=O)c3c(C(F)F)nn(C)c3F)c2)c1 [compound 205] | 4.11
47 | Cc1cc(C)cc(-c2cccc(NC(=O)c3c(C(F)F)nn(C)c3Cl)c2)c1 [compound 206] | 4.34
48 | Cn1nc(C(F)F)c(C(=O)Nc2cccc(-c3ccc(Cl)cc3)c2)c1F [compound 207] | 3.83
49 | Cn1nc(C(F)F)c(C(=O)Nc2cccc(-c3cc(F)cc(F)c3)c2)c1F [compound 209] | 3.62
50 | Cn1nc(C(F)F)c(C(=O)Nc2cccc(-c3cc(F)cc(F)c3)c2)c1Cl [compound 210] | 3.83
51 | Cc1cc(C)c(-c2cccc(NC(=O)c3c(C(F)F)nn(C)c3F)c2)c(C)c1 [compound 211] | 4.34
52 | CC(C)c1cccc(-c2cccc(NC(=O)c3c(C(F)F)nn(C)c3Cl)c2)c1 [compound 213] | 4.61
53 | CC(C)c1cccc(-c2cccc(NC(=O)c3c(C(F)F)nn(C)c3F)c2)c1 [compound 214] | 4.41
54 | CC(C)c1ccc(-c2cccc(NC(=O)c3c(C(F)F)nn(C)c3F)c2)cc1 [compound 215] | 4.46
55 | CC(C)c1ccc(-c2cccc(NC(=O)c3c(C(F)F)nn(C)c3Cl)c2)cc1 [compound 216] | 4.68

Results, then the molecule that gave them:

Row | logP | SMILES
56 | 3.89 | Cn1nc(C(F)F)c(C(=O)Nc2cccc(-c3ccc(F)c(Cl)c3)c2)c1F [compound 217]
57 | 4.11 | Cn1nc(C(F)F)c(C(=O)Nc2cccc(-c3ccc(F)c(Cl)c3)c2)c1Cl [compound 218]
58 | 4.73 | Cn1nc(C(F)F)c(C(=O)Nc2cccc(-c3ccc(C(C)(C)C)cc3)c2)c1F [compound 219]
59 | 4.93 | Cn1nc(C(F)F)c(C(=O)Nc2cccc(-c3ccc(C(C)(C)C)cc3)c2)c1Cl [compound 220]
60 | 3.99 | CC(C)Oc1cccc(-c2cccc(NC(=O)c3c(C(F)F)nn(C)c3F)c2)c1 [compound 221]
61 | 4.21 | CC(C)Oc1cccc(-c2cccc(NC(=O)c3c(C(F)F)nn(C)c3Cl)c2)c1 [compound 222]
62 | 3.96 | CC(C)Oc1ccc(-c2cccc(NC(=O)c3c(C(F)F)nn(C)c3F)c2)cc1 [compound 223]
63 | 4.19 | CC(C)Oc1ccc(-c2cccc(NC(=O)c3c(C(F)F)nn(C)c3Cl)c2)cc1 [compound 224]
64 | 3.99 | Cn1nc(C(F)F)c(C(=O)Nc2cccc(-c3ccc(C(F)(F)F)cc3)c2)c1F [compound 225]
65 | 4.19 | Cn1nc(C(F)F)c(C(=O)Nc2cccc(-c3ccc(C(F)(F)F)cc3)c2)c1Cl [compound 226]
66 | 3.99 | Cn1nc(C(F)F)c(C(=O)Nc2cccc(-c3cccc(Cl)c3Cl)c2)c1F [compound 227]
67 | 4.21 | Cn1nc(C(F)F)c(C(=O)Nc2cccc(-c3cccc(Cl)c3Cl)c2)c1Cl [compound 228]
68 | 4.21 | Cn1nc(C(F)F)c(C(=O)Nc2cccc(-c3ccc(Cl)cc3Cl)c2)c1F [compound 229]
69 | 4.39 | Cn1nc(C(F)F)c(C(=O)Nc2cccc(-c3ccc(Cl)cc3Cl)c2)c1Cl [compound 230]
70 | 4.39 | Cn1nc(C(F)F)c(C(=O)Nc2cccc(-c3cc(Cl)cc(Cl)c3)c2)c1F [compound 231]
71 | 4.73 | Cn1nc(C(F)F)c(C(=O)Nc2cccc(-c3cc(Cl)cc(Cl)c3)c2)c1Cl [compound 232]
72 | 3.89 | CO/N=C(\C)c1ccc(-c2cccc(NC(=O)c3c(C(F)F)nn(C)c3F)c2)cc1 [compound 233]
73 | 4.11 | CO/N=C(\C)c1ccc(-c2cccc(NC(=O)c3c(C(F)F)nn(C)c3Cl)c2)cc1 [compound 234]
74 | 4.61 | CC(C)COc1ccc(-c2cccc(NC(=O)c3c(C(F)F)nn(C)c3F)c2)cc1 [compound 235]
75 | 4.83 | CC(C)COc1ccc(-c2cccc(NC(=O)c3c(C(F)F)nn(C)c3Cl)c2)cc1 [compound 236]
76 | 4.96 | Cn1nc(C(F)F)c(C(=O)Nc2cccc(-c3cccc([Si](C)(C)C)c3)c2)c1F [compound 237]
77 | 5.17 | Cn1nc(C(F)F)c(C(=O)Nc2cccc(-c3cccc([Si](C)(C)C)c3)c2)c1Cl [compound 238]
78 | 5.03 | Cn1nc(C(F)F)c(C(=O)Nc2cccc(-c3ccc([Si](C)(C)C)cc3)c2)c1F [compound 239]
79 | 5.25 | Cn1nc(C(F)F)c(C(=O)Nc2cccc(-c3ccc([Si](C)(C)C)cc3)c2)c1Cl [compound 240]
80 | 4.31 | Cn1nc(C(F)F)c(C(=O)Nc2cccc(-c3cccc(OC(F)(F)F)c3)c2)c1Cl [compound 241]
81 | 4.11 | Cn1nc(C(F)F)c(C(=O)Nc2cccc(-c3cccc(OC(F)(F)F)c3)c2)c1F [compound 242]
82 | 4.14 | Cn1nc(C(F)F)c(C(=O)Nc2cccc(-c3ccc(OC(F)(F)F)cc3)c2)c1F [compound 243]
